Experimental data as given in patent US7462464B1, “Method for the detection of antimicrobial residues in food and bodily fluid samples” (priority 1999, dated 2008).

Experiments:
Assay type in all cases: cell-based
[1] = system: Bacillus stearothermophilus; experiment: Delvotest microbial inhibition test, spiked egg samples; conditions: heated 10 minutes at 80° C., incubated at 64° C., read after 140 minutes
Description: A hole of approximately 1-2 cm2 was made in the egg, the egg yolk was pricked and the egg was placed with the hole down on a bottle allowing the egg white and egg yolk to drip into the bottle. After the egg had emptied, the bottle was closed and the sample was homogenized by shaking. To inactivate the natural inhibiting compounds present in the egg sample, 100 μl of each of the 5 samples was added on Delvotest® ampoules. The test was produced according to the methods described in EP 0005891 with the nutrients present in the agar. After heating for 10 minutes at 80° C. in a waterbath, the ampoules were immediately placed in a waterbath at 64° C. and incubated following the instructions of the producer. […] Egg samples were obtained according to the method described in Example 3. The samples were spiked by adding Penicillin G (0 and 4 ppb) or Sulphadiazine (0 and 100 ppb). The egg samples were added to Delvotest® ampoules (see Example 3) according to the method described in this invention: heated for 10 minutes at 80° C., and then, immediately placed in a waterbath at 64° C. and incubated following the instructions of the manufacturer.

[2] = system: Bacillus stearothermophilus; experiment: Premi Test microbial inhibition test, spiked chicken meat juice with thickening agent
Description: (§1) The samples were then examined using microbial inhibition test ampoules produced according to the methods described in EP 0005891 with the nutrients present in the agar. The said test is also known as Premi®Test (commercially available from DSM N.V., Delft, The Netherlands).
Fresh chicken breast meat of a negative chicken was obtained from a slaughterhouse (negative in the sense of the presence of antibiotics). To obtain meat fluid for further testing pieces of meat were heated for 10 minutes at 64° C. and gently sqeezed using a garlic press. Spiked samples were prepared by adding Amoxicillin (0, 5 and 10 ppb), Oxytetracycline (0, 75 and 100 ppb) or Sulphadiazine (0, 75 and 100 ppb) to the meat juice.
To a part of said samples the thickening agent methylcellulose (4000 c.p.i., Sigma) was added to a final concentration of 1.5%.
100 μl of each sample was added to the Premi®Test ampoules (in duplicate) following the procedure described in Example 1. However, since a thickening agent was added, the pre-incubation step was not required anymore. Also the heating of the samples for 10 minutes at 80° C. was not required for this specific sample.
In addition a similar experiment was executed. However, now samples containing 10 ppb of Amoxycillin or 200 ppb of Oxytetracycline were prepared and the thickening agent bovine albumine (Sigma) was added to a final concentration of 6%.

[3] = system: Bacillus stearothermophilus; experiment: Premi Test microbial inhibition test, spiked bovine kidney pre-urine; conditions: part of sample with methylcellulose 1.5%, controls yellow after 185 minutes
Excerpt: Fresh kidneys of 7 negative (negative in the sense of the presence of antibiotics) cows were obtained from a slaughterhouse. To obtain samples for testing for the presence or absence of antimicrobial drug residues, the rosettes of the kidneys were divided into pieces. The pieces were gently squeezed using a garlic press to obtain pre-urine.
as §1
100 μl of each of the 7 squeezed samples (pre-urine) was added to the test ampoules and heated for 10 minutes at 80° C. in a waterbath, the ampoules were immediately placed in a waterbath of 64° C. and incubated following the instructions of the manufacturer.
The experiment was executed as described in Example 1. However now to a part of the pre-urine sample the thickening agent methylcellulose (4000 c.p.i., Sigma) was added to a final concentration of 1.5%. Also spiked samples were prepared following the method described in Example 6.

[4] = system: Bacillus stearothermophilus; experiment: Microbial inhibition test ampoules (EP 0005891), spiked raw milk; conditions: with or without bovine albumine 6% or heating 10 minutes at 80° C., controls yellow after 160-185 minutes
Description: Raw milk samples of negative cows were obtained from a farmer (negative in the sense of the presence of antibiotics). Spiked samples were prepared by adding Penicillin G to the milk (0, 4 and 6 ppb). To a part of said samples the thickening agent bovine albumine (Sigma) was added to a final concentration of 6%. The samples were then examined using microbial inhibition test ampoules produced according to the method described in EP 0005891 with the nutrients in the agar. 100 μl of milk was added to the test ampoules. A part of the test ampoules with the raw milk sample was heated for 10 minutes at 80° C. as described in Example 1. All experiments were executed in five fold. The tests were further incubated following the methods described in Example 1.

SMILES: Nc1ccc(S(=O)(=O)Nc2ncccn2)cc1 [Sulphadiazine]
- test colour / result (purple = positive, growth of test organism inhibited) ([1]; egg sample spiked with 100 ppb): remained purple (positive)
- test colour / result (purple = positive) ([2]; chicken meat juice spiked with 75 ppb, part of samples with methylcellulose 1.5%, after 160 minutes): remained purple (positive)
- test colour / result (purple = positive) ([2]; chicken meat juice spiked with 100 ppb, part of samples with methylcellulose 1.5%, after 160 minutes): remained purple (positive)
- test colour / result (purple = positive) ([3]; pre-urine spiked with 75 ppb): remained purple (positive)
- test colour / result (purple = positive) ([3]; pre-urine spiked with 100 ppb): remained purple (positive)

SMILES: CC1(C)S[C@@H]2[C@H](NC(=O)Cc3ccccc3)C(=O)N2[C@H]1C(=O)O [Penicillin G]
- test colour / result (purple = positive, growth of test organism inhibited) ([1]; egg sample spiked with 4 ppb): remained purple (positive)
- test colour / result (purple = positive) ([4]; raw milk spiked with 4 ppb): remained purple (positive)
- test colour / result (purple = positive) ([4]; raw milk spiked with 6 ppb): remained purple (positive)

SMILES: CC1(C)S[C@@H]2[C@H](NC(=O)[C@H](N)c3ccc(O)cc3)C(=O)N2[C@H]1C(=O)O [Amoxicillin]
- test colour / result (purple = positive) ([2]; chicken meat juice spiked with 5 ppb, part of samples with methylcellulose 1.5%, after 160 minutes): remained purple (positive)
- test colour / result (purple = positive) ([2]; chicken meat juice spiked with 10 ppb, bovine albumine 6%, after 165 minutes): remained purple
- test colour / result (purple = positive) ([2]; chicken meat juice spiked with 10 ppb, part of samples with methylcellulose 1.5%, after 160 minutes): remained purple (positive)
- test colour / result (purple = positive) ([3]; pre-urine spiked with 5 ppb): remained purple (positive)
- test colour / result (purple = positive) ([3]; pre-urine spiked with 10 ppb): remained purple (positive)
